Source: PubChem BioAssay (NCI)
Values joined by “and” are separate entries in the source; they are usually repeats but may differ in a detail not shown here. Equal entries are not always repeated.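 Five compound concentrations were applied to cells in 96-well plates for 48 hours; endpoints were derived by simple linear interpolation of the resulting dose-response curve. GI50: concentration for 50% inhibition of growth. TGI denotes the concentration required for complete inhibition of growth.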

Legend:
Assay in all cases: growth of human tumour cells (NCI), 48 h
[1] = test system: NCI-H23 lung
[2] = test system: SF-268 CNS
[3] = test system: NCI-H226 lung
[4] = test system: HCT-116 colon
[5] = test system: UACC-257 melanoma
[6] = test system: MDA-MB-435
[7] = test system: M14 melanoma
[8] = test system: CAKI-1 renal
[9] = test system: SF-295 CNS
[10] = test system: HL-60(TB) leukemia
[11] = test system: U251 CNS
[12] = test system: NCI-H522 lung
[13] = test system: IGROV1 ovarian
[14] = test system: 786-0 renal

CCOC(=O)c1c2c(c(O)c3ccccc3c(O)n(Cc3ccccc3)c1C)C(=O)C=CC2=O
TGI [1]: > 100 µM
TGI [2]: > 100 µM
TGI [3]: > 100 µM
TGI [4]: > 100 µM
TGI [5]: > 100 µM
TGI [6]: > 100 µM
TGI [7]: > 100 µM
TGI [8]: > 100 µM
TGI [9]: > 100 µM
TGI [10]: > 100 µM
TGI [11]: > 100 µM
TGI [12]: 92.7 µM
TGI [13]: > 100 µM
TGI [14]: > 100 µM

OCCOc1ccccc2cccc1-2
TGI [1]: > 100 µM
TGI [2]: > 100 µM
TGI [3]: > 100 µM
TGI [4]: > 100 µM
TGI [5]: > 100 µM
TGI [6]: > 100 µM
TGI [7]: > 100 µM
TGI [8]: > 100 µM
TGI [9]: > 100 µM
TGI [10]: > 100 µM
TGI [11]: > 100 µM
TGI [12]: > 100 µM
TGI [13]: > 100 µM
TGI [14]: > 100 µM

CN1CCN(c2ccc3nc(-c4ccc5nc(-c6ccc(O)cc6)[nH]c5c4)[nH]c3c2)CC1
TGI [1]: 531 µM
GI50 [2]: 28.6 µM and 45.4 µM
TGI [2]: 717 µM
TGI [3]: 792 µM
GI50 [4]: 5.66 µM and 30.5 µM
TGI [4]: 512 µM
TGI [5]: 188 µM
GI50 [6]: 41.7 µM
TGI [6]: 217 µM
TGI [7]: 493 µM
TGI [8]: 306 µM
GI50 [9]: 380 µM
TGI [9]: 678 µM
GI50 [10]: 9.03 µM and 24.3 µM
TGI [10]: 148 µM
TGI [11]: 799 µM
GI50 [12]: 4.47 µM and 3.05 µM
TGI [12]: 65.5 µM and 202 µM
TGI [13]: 436 µM
TGI [14]: 941 µM

COC(=O)[C@H](Cc1ccc(OC(C)(C)C)cc1)N[C@H](C)C(=O)N[C@@H](Cc1ccccc1)C(=O)OCc1ccccc1
TGI [1]: > 100 µM
TGI [2]: > 100 µM
TGI [3]: > 100 µM
TGI [4]: > 100 µM
TGI [5]: > 100 µM
TGI [6]: > 100 µM
TGI [7]: > 100 µM
TGI [8]: > 100 µM
TGI [9]: > 100 µM
TGI [10]: > 100 µM
TGI [11]: > 100 µM
TGI [12]: > 100 µM
TGI [13]: > 100 µM
TGI [14]: > 100 µM

C=C(CN1CC2C[C@](C(=O)OC)(c3cc4ccccc4[nH]3)C1C(OC)C2OC)S(=O)(=O)c1ccccc1 (stereo not given in full)
TGI [1]: 9.31 µM
TGI [2]: 15.8 µM
TGI [3]: 18.8 µM
TGI [4]: 7.08 µM
TGI [5]: 8.5 µM
TGI [6]: 7.21 µM
TGI [7]: 9.36 µM
TGI [8]: 11.7 µM
TGI [9]: 14.5 µM
TGI [10]: 5.12 µM
TGI [11]: 8.52 µM
TGI [12]: 3.79 µM
TGI [13]: 8.98 µM
TGI [14]: 10 µM

CCN(CC)Cc1c(/C=C\c2cc(OC)c(OC)c(OC)c2)ccc(OC)c1O
TGI [1]: 14.3 µM
TGI [2]: 52.2 µM
TGI [3]: 27.3 µM
TGI [4]: 42.7 µM
TGI [5]: > 100 µM
TGI [6]: 0.826 µM
TGI [7]: > 59.1 µM
TGI [8]: > 100 µM
TGI [9]: 32.1 µM
TGI [10]: > 60.8 µM
TGI [11]: 17.2 µM
TGI [12]: 6.22 µM
TGI [13]: > 78.5 µM
TGI [14]: 78.9 µM

COc1ccccc1/C=C1\NC(=S)N(/C=C2\C(=O)Oc3ccccc3C2=O)C1=O
TGI [1]: > 100 µM
TGI [2]: > 100 µM
TGI [3]: > 100 µM
TGI [4]: > 100 µM
TGI [5]: > 100 µM
TGI [6]: > 100 µM
TGI [7]: > 100 µM
TGI [8]: > 100 µM
TGI [9]: > 100 µM
TGI [10]: > 100 µM
TGI [11]: > 100 µM
TGI [12]: > 100 µM
TGI [13]: > 100 µM
TGI [14]: > 100 µM

COC(=O)[C@H](CC(C)C)Nc1c(O)c2c(c(O)c1Cl)C(=O)C=CC2=O
TGI [1]: > 10 µM
TGI [2]: > 10 µM
TGI [3]: > 10 µM
TGI [4]: 5.35 µM
TGI [5]: > 10 µM
TGI [6]: > 10 µM
TGI [7]: > 10 µM
TGI [8]: > 10 µM
TGI [9]: > 10 µM
TGI [10]: > 10 µM
TGI [11]: > 10 µM
TGI [12]: > 10 µM
TGI [13]: > 10 µM
TGI [14]: > 10 µM

COC1OC(COC(=O)c2cc(O)c(O)c(O)c2)C(OC(=O)c2cc(O)c(O)c(O)c2)C(OC(=O)c2cc(O)c(O)c(O)c2)C1OC(=O)c1cc(O)c(O)c(O)c1 (stereo not given)
TGI [1]: > 100 µM
TGI [2]: > 100 µM
TGI [3]: 66.8 µM
TGI [4]: > 100 µM
TGI [5]: > 100 µM
TGI [6]: 25.7 µM
TGI [7]: 26.8 µM
TGI [8]: > 100 µM
TGI [9]: > 100 µM
TGI [10]: 50.1 µM
TGI [11]: > 100 µM
TGI [12]: 50.4 µM
TGI [13]: > 100 µM
TGI [14]: 26.4 µM

C[C@@H](NC(=O)c1ccc(CNC(=O)/C=C/c2cccc(Oc3ccccc3)c2)cc1)c1ccccc1
TGI [1]: > 100 µM
TGI [2]: 78 µM
TGI [3]: > 73.5 µM
TGI [4]: > 100 µM
TGI [5]: > 100 µM
TGI [6]: > 100 µM
TGI [7]: > 100 µM
TGI [8]: 44.2 µM
TGI [9]: > 100 µM
TGI [10]: > 100 µM
TGI [11]: > 100 µM
TGI [12]: > 100 µM
TGI [13]: > 100 µM
TGI [14]: 35.4 µM

CC(=O)C1=C(C)N(c2ccc(C)cc2)C2(O)C3=C(C(=O)c4ccccc4C3=O)C(O)=CC12Cl (stereo not given)
TGI [1]: 34 µM
TGI [2]: > 100 µM
TGI [3]: > 100 µM
TGI [4]: > 100 µM
TGI [5]: 55.6 µM
TGI [6]: 14.3 µM
TGI [7]: > 100 µM
TGI [8]: 87.1 µM
TGI [9]: 37.3 µM
TGI [10]: > 100 µM
TGI [11]: > 100 µM
TGI [12]: 33.2 µM
TGI [13]: 52.6 µM
TGI [14]: > 100 µM
